Measured values reported in patent publication US9834526B2 (MERCK SHARP & DOHME CORP., priority 2013, dated 2017).

The molecules below were run against T1, wildtype HIV-1 protease (Human immunodeficiency virus type 1 group M subtype B, UniProt P04585) (assay: Inhibition of microbial expressed HIV protease (Pepcleav)). Details: wild type HIV-1 protease expressed in E. coli, 20 pM enzyme, 400 micromolar peptide substrate, pH 5.5, LC-MS readout; mean of at least two independent experiments.
T1 construct: preincubated with the HIV-1 protease (wild type) enzyme in assay buffer; made in house; host or cells: Escherichia coli
Assay type: biochemical
Experimental: Assay for Inhibition of Microbial Expressed HIV Protease (“Pepcleav”)
Studies of the inhibition of the wildtype HIV-1 protease (which was expressed in Escherichia coli) were carried out with a peptide substrate [Val-Ser-Gln-Asn-(βnaphthyl)Ala-Pro-Ile-Val (SEQ ID NO:1)]. The inhibitor was first preincubated with the HIV-1 protease (wild type) enzyme in assay buffer (50 mM sodium acetate, pH 5.5, 100 mM NaCl, and 0.1% BSA) for 30 minutes at room temperature. Substrate was added to 400 micromolar in a total volume of 20 microliters containing 20 picomolar HIV-1 protease (final) and the reaction was incubated for 1 hour at 30° C. The reaction was quenched with the addition of formic acid and indinavir to 0.012% and 150 nM final concentrations, respectively. The product formation was determined after separation of product and substrate on a Zorbax Eclipse XDB-C18 column connected to an API 4000 mass spectrometer (Applied Biosystems) with multiple reaction monitoring (transitions were 644.5/428.9 and 615.4/422.2 (M1/M3) for product and indinavir respectively). The extent of inhibition of the reaction was determined from the peak area of the products. Analysis of the products, independently synthesized, provided quantitation standards and confirmation of the product composition.

`COC(=O)N[C@H](C(=O)Nc1ccccc1CC[C@@H]1CN[C@H](C)[C@@H](CSc2ccc(C)c(C)c2)O1)C(c1ccccc1)c1ccccc1` [Example 12, methyl N-[(1S)-1-benzhydryl-2-[[2-[2-[(2R,5R,6S)-6-[(3,4-dimethylphenyl)sulfanylmethyl]-5-methyl-morpholin-2-yl]ethyl]phenyl]amino]-2-oxo-ethyl]carbamate] and `COC(=O)N[C@H](C(=O)Nc1ccccc1CC[C@@H]1CN[C@H](C)[C@@H](CSc2cnc3ccccc3n2)O1)C(c1ccccc1)c1ccccc1` [Example 9, methyl N-[(1S)-1-benzhydryl-2-[[2-[2-[(2R,5R,6S)-5-methyl-6-(quinoxalin-2-ylsulfanylmethyl)morpholin-2-yl]ethyl]phenyl]amino]-2-oxo-ethyl]carbamate] are within 1.5-fold of each other in IC50: 11.9 nM for the first, 8.48 nM for the second.

Going from `COC(=O)N[C@H](C(=O)Nc1ccccc1CC[C@@H]1CN[C@H](C)[C@@H](CSc2nc(C)cc(C(F)(F)F)n2)O1)C(c1ccccc1)c1ccccc1` [Example 18, methyl N-[(1S)-1-benzhydryl-2-[[2-[2-[(2R,5R,6S)-5-methyl-6-[[4-methyl-6-(trifluoromethyl)pyrimidin-2-yl]sulfanylmethyl]morpholin-2-yl]ethyl]phenyl]amino]-2-oxo-ethyl]carbamate] to `COC(=O)N[C@H](C(=O)Nc1ccccc1CC[C@@H]1CN[C@H](C)[C@@H](CSc2nnc(Cc3csc(C)n3)o2)O1)C(c1ccccc1)c1ccccc1` [Example 7, methyl N-[(1S)-1-benzhydryl-2-[[2-[2-[(2R,5R,6S)-5-methyl-6-[[5-[(2-methylthiazol-4-yl)methyl]-1,3,4-oxadiazol-2-yl]sulfanylmethyl]morpholin-2-yl]ethyl]phenyl]amino]-2-oxo-ethyl]carbamate], the IC50 falls from 34.9 nM to 7.95 nM (4.4-fold).

Going from `COC(=O)N[C@H](C(=O)Nc1ccccc1CC[C@@H]1CN[C@H](C)[C@@H](CSc2ncnc3c2ncn3[C@@H]2O[C@H](CO)[C@@H](O)[C@H]2O)O1)C(c1ccccc1)c1ccccc1` [Example 23, methyl N-[(1S)-1-benzhydryl-2-[[2-[2-[(2R,5R,6S)-6-[[9-[(2R,3R,4S,5R)-3,4-dihydroxy-5-(hydroxymethyl)tetrahydrofuran-2-yl]purin-6-yl]sulfanylmethyl]-5-methyl-morpholin-2-yl]ethyl]phenyl]amino]-2-oxo-ethyl]carbamate] to `COC(=O)N[C@H](C(=O)Nc1ccccc1CC[C@@H]1CN[C@H](COC(C)=O)[C@@H](CSc2nnc(-c3ccncc3)o2)O1)C(c1ccccc1)c1ccccc1` [Example 30, [(2S,3R,6R)-6-[2-(2-{[N-(methoxycarbonyl)-β-phenyl-L-phenylalanyl]amino}phenyl)ethyl]-2-({[5-(pyridin-4-yl)-1,3,4-oxadiazol-2-yl]sulfanyl}methyl)morpholin-3-yl]methyl acetate], the IC50 falls from 51.9 nM to 0.0334 nM (1600-fold). The second is the more potent here.

Going from `C[C@@H]1O[C@H](CCc2c(F)cccc2NC(=O)[C@@H](N)C(c2ccc(F)cc2)c2ccc(F)cc2)CN[C@@H]1CO` [Example 49, 4-fluoro-N-(3-fluoro-2-{2-[(2R,5R,6S)-5-(hydroxymethyl)-6-methylmorpholin-2-yl]ethyl}phenyl)-β-(4-fluorophenyl)-L-phenylalaninamide] to `COC(=O)N[C@H](C(=O)Nc1ccccc1CC[C@@H]1CN[C@H](COC(=O)NCc2ccc(F)cc2)[C@@H](CSc2nnc(-c3ccncc3)o2)O1)C(c1ccccc1)c1ccccc1` [Example 35, N-(2-{2-[(2R,5R,6S)-5-({[(4-fluorobenzyl)carbamoyl]oxy}methyl)-6-({[5-(pyridin-4-yl)-1,3,4-oxadiazol-2-yl]sulfanyl}methyl)morpholin-2-yl]ethyl}phenyl)-Nα-(methoxycarbonyl)-β-phenyl-L-phenylalaninamide], the IC50 falls from 400 nM to 0.0304 nM (13000-fold).

With `COC(=O)N[C@H](C(=O)Nc1ccccc1CC[C@@H]1CN[C@H](COC(=O)NCC(F)(F)F)[C@@H](CSc2nnc(-c3ccncc3)o2)O1)C(c1ccccc1)c1ccccc1` [Example 43] the IC50 was 0.01 nM.
